US7323620B2, “Activation of equine oocytes” (Idaho Research Foundation, Inc., priority 2002, dated 2008)

What was measured:
horse oocytes = assay: Data in horses: protocol of Group 4 of Example 9 repeated with horse oocytes; format: in vivo
Experimental: The protocol of Group 4 of Example 9 was repeated with […] horse oocytes. Of these, pregnancy was detected at two weeks in 6 mares, […]. Of these 6, 3 pregnancies were detected at 30 days and 1 was detected at 45 days.
(§1) Holding/Activation/Culture Medium for Group 4 in Example 9 and in horses in Example 10 • HECM (Ball et al., Amer. J. Vet. Res., 54(7):1139-44 (1993) • Ham's F-12+Dulbecco's […] (DMEM)—(50:50, v:v) • 0.71 mM CaCl2 (1×) • 29 mM NaHCO3 • 5 micrograms/ml insulin • 5 micrograms/ml transferrin • 5 ng/ml Na-selenite • 10 ng/ml EGF • 50 IU penicillin • 50 micrograms streptomycin

Oocytes from mules = assay: Additional data in mules: calcium concentration in activation medium and peripheral media, pregnancies after nuclear transfer; format: in vivo, mule
Description: The procedures of the above examples were repeated in order to compare results obtained with different concentrations of calcium in the activation medium and in peripheral media, that is media other than the activation medium. Oocytes from mules were placed into one of four groups as follows: In Groups 1 to 3, media was as described above in Examples 1 to 5, except for calcium concentration, which is as described below. In Group 4, media was HECM media.
Tissue Culture Medium (TCM)—199 with Earl's salts • 1.4 mM CaCl2 (1×) • 10% Fetal Bovine Serum (FBS) • 0.05 units FSH • 0.05 units LH • 100 units penicillin • 100 micrograms streptomycin Manipulation Medium:
PB1 (Whittingham, D G, J. Reprod. Fert., 37(1):159-162 (1974) • Dulbecco's phosphate buffered saline • 1.4 mM CaCl2 (1×) • 0.5 mM MgCl2 • 0.33 mM Na-pyruvate • 5.56 mM Glucose • 3 mg/ml Bovine Serum Albumin (BSA)—fraction 5 • 100 units penicillin • 10 micrograms streptomycin Transfer Medium
PB1 (as in Manipulation Medium) except 0.7 mM CaCl2 (1×)
as §1

equine oocytes = assay: Nuclear transfer with activation of oocytes in calcium chloride/ionomycin activation medium, embryo transfer and pregnancy detection by transrectal ultrasonography (cloned mule embryos); format: in vivo, mule (donor cells); recipient mare Equus caballus
Experimental: A primary culture of fibroblast cells was established from a 45-day mule fetus recovered from a domestic horse mare using transcervical uterine lavage. Culture medium was Glasgow MEM BHK-21 supplemented with 10% FBS, 100 units/ml penicillin, and 100 μg/ml streptomycin. Incubation was performed at 38.5° C. in a humidified atmosphere of 5% CO2 in air. Prior to the nuclear transfer procedure, the fibroblast cells were serum “starved” for 5 to 10 days by placing them into medium with 0.5% FBS.
Mares that were used as oocyte donors and as cloned-embryo recipients were of mixed breeding, 3 to 12 years old, and weighed 300 to 500 kg. The reproductive tracts of the mares were monitored by transrectal palpation and ultrasonography to assess follicular activity, ovulation, and the presence and degree of endometrial edema.
Oocytes were collected by one of three methods.
1. Recent (≦12 hours) post-ovulatory oocytes (n=12) were collected by surgically excising the oviduct ipsilateral to ovulation and then flushing the oviduct in a retrograde manner with modified DPBS.
2. Pre-ovulatory oocytes (n=3) were collected by surgically excising ovaries containing a pre-ovulatory follicle (≧35 mm) approximately 30 hours after administration of 2500 IU hCG and then manually aspirating the follicle.
3. Pre-ovulatory oocytes (n=180) were collected using transvaginal aspiration (TVA) of pre-ovulatory follicles approximately 24 hours after administration of 2500 IU hCG.
Oocytes collected post-ovulation were incubated for up to 6 hours in maturation medium (M-199) containing 10% FBS, 0.05 units/ml pFSH, 0.05 units/ml pLH, 10 units/ml penicillin and 10 μg/ml streptomycin. Oocytes collected pre-ovulation were incubated in maturation medium for approximately 12 hours.
Cumulus-free metaphase II oocytes and starved donor cells were placed in a manipulation drop of TL HEPES containing 7.5 μg of cytochalasin B. The first polar body and metaphase plate of the oocytes were drawn into a 25-28 ID enucleation pipette. The same pipette was used to aspirate a disaggregated donor cell nucleus and place it in the perivitelline space of an oocyte to obtain an NT couple. Fusion of NT couples was induced by a single 15 μsec, 2.2 kv/cm DC pulse in a 3.5 mm fusion chamber. Fusion medium was […] D-mannitol containing 0.5 mM HEPES and 0.05% fatty acid-free BSA. Fused NT couples were activated by placing them in an activation medium containing calcium chloride and ionomycin for 8 minutes. Three different concentrations of calcium chloride were used in the activation medium: 2 mM (n=133 oocytes), 6 mM (n=40 oocytes), and 20 mM (n=22 oocytes).
Immediately following nuclear transfer and activation, the oocytes, hereafter referred to as embryos, were surgically transferred to the oviduct of a recipient mare (Equus caballus) that had ovulated within 24 hours prior to the transfer. One to nine embryos were transferred to each mare. Pregnancy examinations on the recipient mare were performed using transrectal ultrasonography beginning on Day 12 post-transfer.

[1] = Group 4 protocol (6x Ca activation, 3x peripheral media), 59 horse oocytes
[2] = Group 4 protocol, of 6 two-week pregnancies
[3] = Group 4 (6x Ca activation, 3x peripheral media)
[4] = 2 mM calcium in activation medium
[5] = 6 mM calcium in activation medium
[6] = 20 mM calcium in activation medium

SMILES: [Ca+2].[Cl-].[Cl-] [calcium chloride]
- Pregnancy detected at two weeks (horse oocytes; [1]): 4.4%
- Pregnancy detected at two weeks, number of mares (horse oocytes; [1]): 6
- Pregnancies detected at 30 days (horse oocytes; [2]): 3
- Pregnancies detected at 45 days (horse oocytes; [2]): 1
- Two-week pregnancies detectable at 30 days (Oocytes from mules; Group 1 (1x Ca all media), of 2 two-week pregnancies): neither
- PREGNANCIES (2 weeks) (Oocytes from mules; Group 1: 1x Ca (about 2 mM) all media): (1.7%)
- PREGNANCIES (2 weeks), number (Oocytes from mules; Group 1: 1x Ca (about 2 mM) all media, 115 oocytes): 2
- Two-week pregnancies detectable at 30 days (Oocytes from mules; Group 2 (3x Ca activation medium), of 3 two-week pregnancies): 2
- PREGNANCIES (2 weeks) (Oocytes from mules; Group 2: 3x Ca (about 6 mM) in activation media, 1x Ca all other media): (7.5%)
- PREGNANCIES (2 weeks), number (Oocytes from mules; Group 2: 3x Ca (about 6 mM) in activation media, 1x Ca all other media, 40 oocytes): 3
- PREGNANCIES (2 weeks) (Oocytes from mules; Group 3: 10x Ca (about 20 mM) in activation media, 1x Ca all other media): (9.09%)
- PREGNANCIES (2 weeks), number (Oocytes from mules; Group 3: 10x Ca (about 20 mM) in activation media, 1x Ca all other media, 22 oocytes): 2
- Pregnancies detectable at 45 days (Oocytes from mules; [3]): Five
- Pregnancies detectable at 120 days (Oocytes from mules; [3]): 3
- Two-week pregnancies detectable at 30 days (Oocytes from mules; Group 4 (6x Ca activation, 3x peripheral media), of 12 two-week pregnancies): 9
- PREGNANCIES (2 weeks) (Oocytes from mules; Group 4: 6x Ca (about 12 mM) in activation media, 3x Ca all other media, HECM media): (14.4%)
- PREGNANCIES (2 weeks), number (Oocytes from mules; Group 4: 6x Ca (about 12 mM) in activation media, 3x Ca all other media, HECM media, 132 oocytes): 19
- Pregnancy Rate (equine oocytes; [4]): (1.5%)
- Pregnancy Rate (pregnancies/oocytes) (equine oocytes; [4]): 2/133
- Pregnancy Rate (equine oocytes; [5]): (7.5%)
- Pregnancy Rate (pregnancies/oocytes) (equine oocytes; [5]): 3/40
- Ultrasonography of cloned mule conceptus (equine oocytes; 6 mM calcium in activation medium, Day 32 of gestation): an embryonic heart was evident
- Pregnancy Rate (equine oocytes; [6]): (9.1%)
- Pregnancy Rate (pregnancies/oocytes) (equine oocytes; [6]): 2/22
- Pregnancies, higher versus lower calcium (equine oocytes; 6 and 20 mM combined compared to 2 mM in activation medium, P<0.05): more pregnancies
